Results on 35 molecules are retold here after patent publication US20050256132A1, “Use of ER selective NF-kB inhibitors for the treatment of sepsis” (priority 2003, published 2005).

For one data set, the system named is ER/IL-6. Nature of the data set: Endothelial Cell ER/IL-6 Assay, IL-6 promoter luciferase (Table 2). In kind it is cell-based, human. Particulars: ERα infected HAECT-1 cells, IL-1β; for IC50: read-out: IL6 luc IC50; for Emax: read-out: IL6 luc % Efficacy. The protocol: T-175 flasks of 100% confluent HAECT-1 cells (immortalized human aortic endothelial cells) were washed with 8 ml of HBSS (HEPES buffered saline solution) and infected for fours hours with 6 ml of a 1:10 dilution of Ad5-wt-hERα virus (an adenovirus transfection vector that mediates CMV promoter driven expression of human ERα) in phenol red free Endothelial Cell Basal medium (Clonetics, San Diego, Calif., Catalog # CC-3129) containing 0.25% bovine serum albumin (EDM-BSA). After four hours, cells were washed with EDM-BSA and incubated overnight in the same medium. Following overnight incubation, cells were washed with EDM-BSA and infected for 2 hours with 6 ml of a 1:10 dilution of Ad5-3x(NFκB).Luc virus (Adenovirus luciferase expression vector driven by three repeats of the MHC NFκb sites 5′ to the thymidine kinase promoter) in EDM-BSA. After two hours, cells were washed and incubated at 34° C. for one hour. Cells were then washed, trypsinized, counted, and resuspended in 95% FBS/5% dimethylsulfoxide at a concentration of […], frozen as 1 or 5 ml aliquots in cryo-vials and stored at −150° C. Control (no ER infection) cells were processed as above without Ad5-wt-hERα virus infection.
ERα infected HAECT-1 cells or control cells were thawed, diluted 42× in warm EBM-BSA, plated into 96-well plates at 0.1 ml/well and incubated for 4 hours at 34° C. Test compounds were added to the cells at 2× stocks in EBM-BSA containing 2 ng/ml IL-1β Ad6-IL-6(1250 bp).Luc virus and plates were returned to the incubator (34° C.). After […], cells were lysed with 50 μl of Promega Cell Culture Lysis reagenet for about 5 minutes at room temperature on a shaker. After lysing, 15 μl of lysate is transferred to luminometer plates for luciferase determination. Luciferase activity is evaluated using a Perkin Elmer Victor2 1420 multilabel counter. Creatine kinase was determined from the rate of increase in A340 following addition of 100 μl of CK assay reagent (Sigma catalog no. 47-10) to the remainder of the cell lysate.
For IC50 and EC50 calculations, mean IL-6, luciferase or CK values versus log10 of the compound concentration were fitted to a four parameter logistic equation. The IC50/EC50 value, ‘Hill slope,’ upper and lower limits of the curve were iteratively estimated.

A word on the melting point: it is the temperature of the solid-liquid transition. A word on the IC50: it is the point on the concentration scale where inhibition reaches its midpoint.

Several values for one entry are separate records, joined by “and”; a condition that tells them apart may be missing. Equal entries are not always repeated. Where two headings read alike, the source gives them in different places.

Molecule `CC(C)(C)OC(=O)C(C#N)C(c1ccccc1OC(F)(F)F)c1cccc2ccccc12` (stereo not shown) returned a melting point of 115 to 118 °C.
The molecule `Cc1cccc(C)c1C(c1cccc2ccccc12)C(C#N)C(=O)OC(C)(C)C` (stereo not shown) registered a melting point of 124 to 128 °C.
`COc1ccccc1[C@H](c1cccc2ccccc12)[C@@](C)(C#N)C(=O)N1CCC(O)(c2ccc(Br)cc2)CC1` yielded a melting point of 206 to 208 °C.
The molecule `COc1ccccc1[C@H](c1cccc2ccccc12)[C@@](C)(C#N)C(=O)N1CCN(CC(=O)N2CCOCC2)CC1` returned a melting point of 201 °C.
For `COc1ccccc1[C@H](c1cccc2ccccc12)[C@@](C)(C#N)C(=O)N1CCN(C(=O)c2ccco2)CC1`, the melting point was 193 °C.
The molecule `COc1ccccc1[C@H](c1cccc2ccccc12)[C@@](C)(C#N)C(=O)N1CCN(CCN2CCOCC2)CC1` displayed a melting point of 102 to 103 °C.
For the molecule `CCOC(=O)C(C)(C#N)C(c1cccc2ccccc12)c1cccc2ccccc12` (stereo not shown), the melting point fell in the range of 186 to 188 °C.
In turn, `COc1ccccc1[C@H](c1cccc2ccccc12)[C@@](C)(C#N)C(=O)N1CCN(c2cccc(C)c2)CC1` gave a melting point of 104 to 105 °C.
Same read-out and setting: the result for `COc1cc(OC)cc(N2CCN(C(=O)[C@](C)(C#N)[C@H](c3ccccc3OC)c3cccc4ccccc34)CC2)c1` reads 186 to 188 °C.
On to `COc1ccccc1[C@H](c1cccc2ccccc12)[C@@](C)(C#N)C(=O)N1CCN(c2cccc3c2CCC3)CC1`, for which the melting point is 188 to 190 °C.
Regarding `COc1ccccc1[C@H](c1cccc2ccccc12)[C@@](C)(C#N)C(=O)N1CCN(c2ccc(C)c(C)c2)CC1`, the melting point is 181 to 183 °C.
On the same count and under the same terms, the result for `COc1ccccc1[C@H](c1cccc2ccccc12)[C@@](C)(C#N)C(=O)N1CCN(c2cccc(Cl)c2)CC1` reads 174 to 176 °C; that for `COc1ccccc1[C@H](c1cccc2ccccc12)[C@@](C)(C#N)C(=O)N1CCN(c2cccc(C)c2C)CC1`, 194 to 195 °C; that for `COc1ccccc1[C@H](c1cccc2ccccc12)[C@@](C)(C#N)C(=O)N1CCN(c2ccc(Cl)cc2)CC1`, 178 to 180 °C.
`COc1ccccc1[C@H](c1cccc2ccccc12)[C@@](C)(C#N)C(=O)N1CCN(c2cccc3[nH]ccc23)CC1` gave a melting point of 174 to 176 °C.
As to `COc1ccccc1[C@H](c1cccc2ccccc12)[C@@](C)(C#N)C(=O)N1CC=C(c2ccc(Cl)cc2)CC1`, the melting point is 118 to 122 °C.
With `COc1ccccc1[C@H](c1cccc2ccccc12)[C@@](C)(C#N)C(=O)N1CCN(c2ccccc2F)CC1`, the melting point lay in the range of 145 to 148 °C.
The molecule `COc1ccccc1[C@H](c1cccc2ccccc12)[C@@](C)(C#N)C(=O)N1CCN(c2ccccc2Cl)CC1` registered a melting point of 145 to 147 °C.
For the molecule `COc1cccc(N2CCN(C(=O)[C@](C)(C#N)[C@H](c3ccccc3OC)c3cccc4ccccc34)CC2)c1`, the melting point fell in the range of 147 to 148 °C.
For the molecule `CC(C)(C)OC(=O)C(C#N)C(c1cccc2ccccc12)c1cccc2ccccc12` (stereo not shown), the melting point lay in the range of 156 to 157 °C.
In turn, `CC(C)(C)OC(=O)[C@@](C)(C#N)[C@H](c1ccccc1OC(F)(F)F)c1cccc2ccccc12` (racemic) displayed a melting point of 150 to 153 °C.
For `COC(=O)[C@@](C#N)(CCN1CCOCC1)[C@H](c1ccccc1OC)c1cccc2ccccc12` (relative stereo) [Example 147, Methyl (2S*)-2-cyano-2-[(S*)-(2-methoxyphenyl)(1-naphthyl)methyl]-4-morpholin-4-ylbutanoate], the IC50 in the data set with ER/IL-6 (Homo sapiens, HAECT1) was determined as 12 nM.
As to `CCN(CC)CC[C@](C#N)(C(=O)OC)[C@H](c1ccccc1OC)c1cccc2ccccc12` (relative stereo) [Example 148, Methyl (2S*)-2-cyano-4-(diethylamino)-2-[(S*)-(2-methoxyphenyl)(1-naphthyl)methyl]butanoate], the IC50 in the data set on ER/IL-6 (Homo sapiens, HAECT1) was determined as 257 nM.
Take `COc1ccccc1[C@H](c1cccc2ccccc12)[C@@](C)(C#N)C(=O)N1CC=C(c2ccc(F)cc2)CC1` [Example 137, (2S)-3-[4-(4-fluorophenyl)-3,6-dihydropyridin-1(2H)-yl]-2-[(S)-(2-methoxyphenyl)(1-naphthyl)methyl]-2-methyl-3-oxopropanenitrile]: in the data set on ER/IL-6 (Homo sapiens, HAECT1), the Emax was 163% and the IC50 worked out at 33 nM.
For the molecule `COc1ccccc1[C@H](c1cccc2ccccc12)[C@@](C)(C#N)C(=O)N1CCC(O)(c2cccc(C(F)(F)F)c2)CC1` [Example 140, (2S)-3-{4-hydroxy-4-[3-(trifluoromethyl)phenyl]piperidin-1-yl}-2-[(S)-(2-methoxyphenyl)(1-naphthyl)methyl]-2-methyl-3-oxopropanenitrile], in the data set with ER/IL-6 (Homo sapiens, HAECT1), the Emax came to 125% and the IC50 came to 324 nM.
Regarding `COCCOC[C@@](C#N)(C(=O)OC)[C@@H](c1ccccc1OC)c1cccc2ccccc12` [Example 159, Methyl (2R,3R)-2-cyano-2-[(2-methoxyethoxy)methyl]-3-(2-methoxyphenyl)-3-(1-naphthyl)propanoate], in the data set on ER/IL-6 (Homo sapiens, HAECT1), the Emax was 95% and the IC50 was 273 nM.
As for `COc1ccccc1C(c1cnc2ccccc2c1)C(C)(C#N)C(=O)N1CCC(c2cccc(C(F)(F)F)c2)CC1` (stereo not shown) [Example 164, 3-(2-Methoxyphenyl)-2-methyl-3-quinolin-3-yl-2-({4-[3-(trifluoromethyl)phenyl]piperidin-1-yl}carbonyl)propanenitrile], in the data set with ER/IL-6 (Homo sapiens, HAECT1), the Emax was found to be 48% and the IC50 worked out at 32 nM.
Take `COCCOC[C@@](C#N)(C(=O)N1CCC(c2cccc(C(F)(F)F)c2)CC1)[C@@H](c1ccccc1OC)c1cccc2ccccc12` [Example 168, (RR,SS)-2-[(2-Methoxyethoxy)methyl]-3-(2-methoxyphenyl)-3-(1-naphthyl)-2-({4-[3-(trifluoromethyl)phenyl]piperidin-1-yl}carbonyl)propanenitrile]: in the data set with ER/IL-6, the “IL6 luc % Efficacy” value is listed as 68% and the IC50 came to 37 nM.
On to `COCCOC[C@@](C#N)(C(=O)NCC(C)(C)C)[C@@H](c1ccccc1OC)c1cccc2ccccc12` [Example 170, (RR,SS)-2-Cyano-N-(2,2-dimethylpropyl)-2-[(2-methoxyethoxy)methyl]-3-(2-methoxyphenyl)-3-(1-naphthyl)propanamide], for which, in the data set with ER/IL-6, the “IL6 luc % Efficacy” value came out at 89% and the IC50 was 577 nM.
On to `COCCOC[C@@](C#N)(C(=O)N1CCN(c2cnccn2)CC1)[C@@H](c1ccccc1OC)c1cccc2ccccc12` [Example 171, (RR,SS)-2-[(2-methoxyethoxy)methyl]-3-(2-methoxyphenyl)-3-(1-naphthyl)-2-[(4-pyrazin-2-ylpiperazin-1-yl)carbonyl]propanenitrile], for which, in the data set with ER/IL-6, the “IL6 luc % Efficacy” value was 54% and the IC50 was determined as 337 nM.
On to `COc1ccccc1[C@@H](c1cccc2ccccc12)[C@@](C#N)(Cc1cccnc1)C(=O)NCC(C)(C)C` [Example 176, (RR,SS)-2-cyano-N-(2,2-dimethylpropyl)-3-(2-methoxyphenyl)-3-(1-naphthyl)-2-(pyridin-3-ylmethyl)propanamide], for which, in the data set with ER/IL-6, the “IL6 luc % Efficacy” value was found to be 71% and the IC50 was 413 nM.
As for `COc1ccccc1[C@@H](c1cccc2ccccc12)[C@@](C#N)(Cc1cccnc1)C(=O)OC(C)(C)C` [Example 179, tert-Butyl (RR,SS)-2-cyano-3-(2-methoxyphenyl)-3-(1-naphthyl)-2-(pyridin-3-ylmethyl)propanoate], in the data set with ER/IL-6, the “IL6 luc % Efficacy” value is on record as 128% and the IC50 was 151 nM.
For the molecule `COCC(C#N)(C(=O)NC(C)(C)C)C(c1ccccc1OC)c1cccc2ccccc12` (stereo not drawn) [Example 180, (RR,SS)-N-(tert-butyl)-2-cyano-2-(methoxymethyl)-3-(2-methoxyphenyl)-3-(1-naphthyl)propanamide], in the data set on ER/IL-6, the “IL6 luc % Efficacy” value is recorded as 119% and the IC50 turned out to be 200 nM.
Turning to `COC[C@@](C#N)(C(=O)N1CCN(CCN2CCOCC2)CC1)[C@@H](c1ccccc1OC)c1cccc2ccccc12` [Example 219, (RR,SS)-2-(methoxymethyl)-3-(2-methoxyphenyl)-2-{[4-(2-morpholin-4-ylethyl)piperazin-1-yl]carbonyl}-3-(1-naphthyl)propanenitrile], in the data set with ER/IL-6, the “IL6 luc % Efficacy” value is given as 74% and the IC50 amounted to 1400 nM.
Turning to `COC[C@](C#N)(C(=O)N1CCN(C2CCCCC2)CC1)[C@H](c1ccccc1OC)c1cccc2ccccc12` [Example 221, (2S,3S)-3-(4-cyclohexylpiperazin-1-yl)-2-(methoxymethyl)-2-[(2-methoxyphenyl)(1-naphthyl)methyl]-3-oxopropanenitrile], the “IL6 luc % Efficacy” value in the data set on ER/IL-6 was 159% and 245% and 174%.
